Assay [1] has as its target chymotrypsin-truncated R67 dihydrofolate reductase cross-linked to folate with EDC. The experiment in a line: AUC.
In assay [2] the target is T1, R67 dihydrofolate reductase (R67 DHFR) (Escherichia coli, UniProt P00383).
T1 sequence (P00383 1-78): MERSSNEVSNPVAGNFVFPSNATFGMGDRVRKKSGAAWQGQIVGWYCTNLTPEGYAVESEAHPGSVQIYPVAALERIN
The assay can be described thus: steady-state DHFR inhibition, Lineweaver–Burk slope replot. The class given is biochemical.

Assay [3] concerns the target chymotrypsin-truncated R67 dihydrofolate reductase. The experiment in a line: AUC.
Assay [4] has as its target T2, R67 dihydrofolate reductase (K33M) (Escherichia coli, UniProt P00383, K33M).
T2 sequence (P00383 4-78 K33M): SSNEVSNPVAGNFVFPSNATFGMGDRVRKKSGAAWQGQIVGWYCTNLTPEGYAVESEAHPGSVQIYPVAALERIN
The assay can be described thus: folate reduction kinetics. The class given is biochemical.

The target in assay [5] is T1, R67 dihydrofolate reductase (R67 DHFR). The experiment in a line: steady-state DHFR inhibition vs DHF. Type of assay: biochemical.

Several values for one entry are separate records, joined by “and”; a condition that tells them apart may be missing. Identical values can stand only once.

Broadly, the stoichiometry N is a count of units in the complex or per binding partner. For “chymotrypsin-truncated R67 dihydrofolate reductase cross-linked to folate with EDC (enzyme)”, the stoichiometry N in assay [1] turned out to be 4.
One may read the Ki as a measure of affinity in units of concentration, obtained from inhibition or displacement. The low end stands for a stronger hold on the target, the high end for a looser hold on the target. With `NCCNC(=O)CC[C@H](NC(=O)c1ccc(NCc2cnc3nc(N)[nH]c(=O)c3n2)cc1)C(=O)NCCN` [bis-EDA–folate], the Ki in assay [2] came out at 140 ± 15 µM.
Take “chymotrypsin-truncated R67 dihydrofolate reductase (enzyme)”: in assay [3], the stoichiometry N is 4 and 2.
Regarding `Nc1nc(=O)c2nc(CNc3ccc(C(=O)N[C@@H](CCC(=O)O)C(=O)O)cc3)cnc2[nH]1` [folate], the “folate reduction kinetics (kcat) and EDC cross-linking inactivation” value in assay [4] amounted to 0.065 ± 0.017 min^–1. The compound further returned an inhibitory constant (Ki) in assay [5] of 16 ± 3 µM.
